PubChem BioAssay (NCI)
“And” between values parts separate entries of the source, which are not always exact repeats. Equal entries are not always repeated.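 48-hour exposure; five concentrations; linearly interpolated endpoints. GI50: concentration for 50% inhibition of growth. TGI denotes the concentration required for complete inhibition of growth.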

Legend:
Experiment in all cases: growth of human tumour cells (NCI), 48 h
[1] = test system: SF-539 CNS
[2] = test system: CCRF-CEM leukemia
[3] = test system: UACC-62 melanoma
[4] = test system: DU-145 prostate
[5] = test system: SK-MEL-28 melanoma
[6] = test system: NCI-H460 lung
[7] = test system: A549 NSCLC
[8] = test system: ACHN renal
[9] = test system: T-47D breast
[10] = test system: HL-60(TB) leukemia

| SMILES | GI50 [1] | TGI [1] | GI50 [2] | TGI [2] | GI50 [3] | TGI [3] | GI50 [4] | TGI [4] | GI50 [5] | TGI [5] | GI50 [6] | TGI [6] | GI50 [7] | TGI [7] | GI50 [8] | TGI [8] | GI50 [9] | TGI [9] | TGI [10] | GI50 [10] |
| --- | --- | --- | --- | --- | --- | --- | --- | --- | --- | --- | --- | --- | --- | --- | --- | --- | --- | --- | --- | --- |
| COc1cc2c(cc1OCCN1CCN(CCN3C(=O)c4cccc5cccc(c45)C3=O)CC1)N=C[C@@H]1CCCN1C2=O | 20.8 µM | 45.6 µM | 19.9 µM | 39 µM | 18.2 µM | 35 µM | 16.9 µM | 30.6 µM | 32.5 µM | 77.7 µM | 18.1 µM | 42.8 µM | 18.7 µM | 47.3 µM | 17.2 µM | 31.5 µM | – | – | – | – |
| CN(C)[C@@H]1C(=O)C(C(=O)NCc2nc3[nH]cnc(=S)c3[nH]2)=C(O)[C@@]2(O)C(=O)C3=C(O)c4c(O)cccc4[C@@](C)(O)[C@H]3C[C@@H]12 | 3.67 µM | > 100 µM | 1.02 µM | > 100 µM | 2.91 µM | > 100 µM | 4.43 µM | > 100 µM | > 100 µM | > 100 µM | 19.1 µM | > 100 µM | > 100 µM | > 100 µM | 16.1 µM | > 100 µM | 1.95 µM | > 100 µM | – | – |
| CCC12C=C(C(=O)OC)N3c4ccccc4C4CCN(CCC1)C2C43 (stereo not given) | – | > 100 µM | – | > 100 µM | – | > 100 µM | – | – | – | > 100 µM | – | – | – | > 100 µM | – | > 100 µM | – | – | > 100 µM | – |
| CNS(=O)(=O)NNS(=O)(=O)c1ccc(C)cc1 | – | > 100 µM | – | > 100 µM | – | > 100 µM | – | – | – | > 100 µM | – | > 100 µM | – | > 100 µM | – | > 100 µM | – | – | > 100 µM | – |
| COc1ccc([C@@H]2[C@@H](Oc3ccccc3)C(=O)N2c2cc(OC)c(OC)c(OC)c2)cc1F | 0.0735 µM | 0.709 µM | 0.204 µM | > 100 µM | 0.0419 µM | > 100 µM | 0.378 µM | > 100 µM | 0.26 µM | > 100 µM | 0.155 µM | > 100 µM | 0.209 µM | > 100 µM | 0.0699 µM | > 100 µM | – | – | 0.609 µM | 0.24 µM |
| CCCCCNC(=O)CCCCCCCCCCCNC(=O)CCCCCCCCCCN1C=CC(=CC=C2C=CC(=O)C=C2)C=C1 | – | > 100 µM | – | > 100 µM | – | > 100 µM | – | – | – | > 100 µM | – | > 100 µM | – | > 100 µM | – | > 100 µM | – | – | 8.83 µM | – |
| O=C1c2ccccc2C2(O)N(c3ccccc3)C(=S)N(c3ccccc3)C12O (stereo not given) | – | > 100 µM | – | > 100 µM | – | > 100 µM | – | – | – | > 100 µM | – | > 100 µM | – | > 100 µM | – | > 100 µM | – | – | – | – |
| O=C1c2ccccc2-c2c1c1c(O)cccc1n2Cc1ccccc1 | 14.2 µM | 35.3 µM | – | – | 7.35 µM | 27.2 µM | 11.9 µM | 64.7 µM | 20.8 µM | 62.4 µM | 10.3 µM | 45.6 µM | 16.8 µM | > 100 µM | 6.9 µM | 23.8 µM | 7.8 µM | 90.2 µM | – | – |
| CC(=O)NC(CCCNC(=O)OCc1ccccc1)C(=O)NCc1ccccc1 (stereo not given) | – | > 100 µM | – | > 100 µM | – | > 100 µM | – | – | – | > 100 µM | – | > 100 µM | – | > 100 µM | – | > 100 µM | – | – | – | – |
| ON1CCc2c([nH]c3ccccc23)C1c1ccc(Cl)cc1 (stereo not given) | – | > 100 µM | – | 93.8 µM | – | > 100 µM | – | – | – | > 100 µM | – | – | – | > 100 µM | – | > 100 µM | – | – | 79.5 µM | – |
| COc1cc2c(Oc3ccc(-c4cnc(Nc5ccc(F)cc5)n(C)c4=O)cc3F)ccnc2cc1OCCCN1CCOCC1 | 0.464 µM | 1.62 µM | 3.04 µM | > 100 µM | – | – | 1.56 µM | 3.17 µM | 0.97 µM | 2.28 µM | 1.51 µM | 3.22 µM | 1.66 µM | 3.42 µM | 0.864 µM | 2.15 µM | – | – | – | – |
| Nc1ccccc1C(=O)/C=C/c1ccccc1O | – | > 100 µM | – | > 100 µM | – | > 100 µM | – | – | – | > 100 µM | – | > 100 µM | – | > 100 µM | – | – | – | – | 58.8 µM | – |
| CC(C)(C)C1CCC(O)(c2ccccc2)CC1 (stereo not given) | – | > 100 µM and 45.4 µM | – | > 100 µM | – | > 100 µM and 45.1 µM | – | – | – | > 100 µM and 64.5 µM | – | > 100 µM and 55.8 µM | – | > 100 µM and 89.2 µM | – | > 100 µM and 59.9 µM | – | – | 66.8 µM and 32.5 µM | – |
| CN1S(=O)(=O)N(C)P12(N=P(CP(=NP13(N(C)S(=O)(=O)N1C)N(C)S(=O)(=O)N3C)(c1ccccc1)c1ccccc1)(c1ccccc1)c1ccccc1)N(C)S(=O)(=O)N2C | – | > 100 µM | – | > 100 µM | – | > 100 µM | – | – | – | > 100 µM | – | > 100 µM | – | > 100 µM | – | > 100 µM | – | – | > 100 µM | – |
| CCN1CCN(CC(=O)Nc2nc3ccc(NCc4ccc(Br)cc4)cc3s2)CC1 | 1.75 µM | 3.24 µM | – | – | 1.9 µM | 3.52 µM | 5.14 µM | > 100 µM | 1.92 µM | 3.76 µM | – | – | – | – | 2.03 µM | 4.4 µM | 1.75 µM | 4.55 µM | 3.81 µM | 1.95 µM |
| O=C1NC(=O)N(S(=O)(=O)c2cc(C(=O)Nc3ccc(Cl)cc3)c(Cl)cc2S)S(=O)(=O)N1 | 19.7 µM | 39.3 µM | 8.53 µM | 26.9 µM | 6.67 µM | 23.6 µM | 16.5 µM | 31.2 µM | 14.6 µM | > 100 µM | 16.3 µM | 40.3 µM | 25.1 µM | 55.6 µM | 21.6 µM | 43.7 µM | 6.65 µM | 55.7 µM | – | – |
| CCOC(=O)C1(C)CCC(C(=O)OC)C1=O (stereo not given) | – | > 100 µM | – | 57.7 µM | – | > 100 µM | – | – | – | > 100 µM | – | 28.6 µM | – | > 100 µM | – | > 100 µM | – | – | > 100 µM | – |
| O=C1Nc2ccc(Cl)cc2/C1=N/c1nc(-c2ccc(Cl)cc2)cs1 | – | – | 2.28 µM | > 100 µM | 1.54 µM | 4.1 µM | 1.42 µM | 2.79 µM | – | – | – | – | – | – | – | – | 0.938 µM | 5.8 µM | – | – |
| O=c1c2cc(Br)ccc2nc(CNc2ccccc2)n1-c1ccccc1 | – | 32.7 µM | – | 13.7 µM | – | 23.5 µM | – | – | – | > 65.6 µM | – | 45.4 µM | – | > 62.7 µM | – | > 49.9 µM | – | – | 39.7 µM | – |
